“Also recorded” adds a separate entry of the source.
Legend:
[1] = Safety evaluation: clinical adverse events and laboratory tests; assay type: in vivo, human
Protocol: (§1) During the study, close observations and detailed records were kept in all subjects for clinical adverse events (AE), abnormal results of clinical laboratory tests and other specific examinations. The early renal damage indicators, including serum β2-microglobulin, serum Cysteine […] inhibitor C (Cystatin C), urine neutrophils gelatinase-associated lipocalin (NGAL) and urine β2-microglobulin, were tested at day 4 and day 8 after the start of drug administration.

[2] = Early renal damage indicators, serum creatinine and urea; assay type: in vivo, human; conditions: Day8; individual subjects S01–S12, one line each; normal range 0.7-1.8 mg/L
Protocol: as §1

[3] = human, in vivo, iv
Protocol: (§2) A single-center, open-label, multi-dose trial design was conducted following multiple intravenous administrations of CMS in 12 healthy Chinese subjects.
(§3) The dose regimen was 2.5 mg/kg CBA for 7 consecutive days with 12 h between each administration, except for one dose on day 1 (first dose) and day 7 (last dose). Each intravenous infusion time was 90 ± 10 min.
(§4) The blood samples were collected on day 1 and day 7 at pre-dose during intravenous infusion (30 min and 60 min after the start of intravenous infusion), immediately after the end of intravenous infusion (1.5 h) and at 1.75 h, 2 h, 2.5 h, 3.5 h, 5 h, 7 h, 9 h, 12 h, 16 h and 24 h after the start of intravenous infusion. From day 2 to day 6, blood samples were collected before and immediately after the end of infusion of the first dose. All blood samples were collected and transferred into an EDTA-K2 tube, and were then centrifuged at 3500 rpm for 10 min at 4 °C. Within 1 h after blood collection, the plasma samples were stored at −70 ± 10 °C until analysis [10].
(§5) The concentrations of CMS and colistin in plasma and urine samples were analyzed with a verified ultra-performance liquid chromatography tandem mass spectrometry method [30]. To determine the free colistin concentration, the matrix was alkalized with 5% ammonia at 0–4 °C, and CMS concentrations were obtained with acid hydrolysis, and then loaded onto the Oasis weak cation exchange 96-well plate (WCX, Waters, Milford, MA, USA). The standard curves of colistin A/colistin B for the plasma and urine samples ranged from 0.0446/0.0332–4.46/3.32 μg/mL to 0.0223/0.0166–2.23/1.66 μg/mL [10], respectively. The concentrations of colistin and CMS were determined as the major components of colistin A+ colistin B and colistin A methanesulfonate (CMS A) + colistin B methanesulfonate (CMS B), respectively.
(§6) The PK parameters of CMS and colistin in plasma were calculated by the non-compartment model [23] using the WinNonlin8.0 software (Pharsight, Mountain View, CA, USA). […] The urine excretion rate was calculated according to the correction of renal clearance (CLr). The PK parameters in urine samples calculated included interval urinary excretion rate, cumulative urinary excretion rate and CLr.
(§7) The PK parameters were expressed as average ± standard deviation (mean ± SD). The main PK parameters after the first and last doses were evaluated by paired t test (SAS 9.4, SAS Institute, Inc., Cary, NC, USA). p value ≤ 0.05 was considered as significant.

[4] = human, in vivo; cited from earlier work
[5] = Plasma pharmacokinetics of CMS and colistin after multi-dose intravenous infusions of CMS; conditions: mean ± SD, n = 12, SD; for CLr: renal clearance
Protocol: as §2, §3, §4, §5, §6, §7

[6] = 12 healthy Chinese subjects, CMS 2.5 mg/kg CBA i.v. q12 h 7 days
[7] = individual healthy Chinese subjects S01–S12, one line each, CMS 2.5 mg/kg CBA i.v. q12 h 7 days
[8] = Day 1 (first dose), CMS 2.5 mg/kg CBA i.v.
[9] = Day 1 (first dose), CMS 2.5 mg/kg CBA i.v., plasma
[10] = Day 7 (last dose), CMS 2.5 mg/kg CBA i.v. q12 h 7 days
[11] = Day 7 (last dose, steady state), CMS 2.5 mg/kg CBA i.v. q12 h 7 days, plasma

For Colistin methanesulfonate [CMS], the “Deaths or serious adverse events” value [1, 6] was “No serious adverse events were observed; also recorded: No deaths or other serious adverse events occurred”, the “Vital signs, QTc and electrocardiogram” value [1, 6] was “No abnormal vital signs nor QTc prolongations or other clinically significant electrocardiogram abnormalities were found” and the Nephrotoxicity ([1]; 12 healthy Chinese subjects, CMS 2.5 mg/kg CBA i.v. q12 h 7 days, no increase in urine β2 microglobulin and urine NGAL) was “no nephrotoxicity was observed; also recorded: No obvious nephrotoxicity occurred”. For the same substance, the “Subjects with adverse effects” value ([1]; 12 healthy Chinese subjects, after multi-dose i.v. infusions of CMS, all mild and transient) was “Eleven out of the twelve”, the “Abnormality in Laboratory Test” value [1, 7] was “Normal; also recorded: Decreased absolute value of neutrophils (2 days)” and the “Clinical Adverse Event (Duration)” value [1, 7] was “Facial itchiness (4 days and 12 h) Tongue numbness (5 days and 2 h) Dizziness (2 days and 16 h); also recorded: Facial itchiness (2 days and 3 h) Tongue numbness (5 days and 8 h); also recorded: Tongue numbness (6 days and 12 h) Lip numbness (5 days and 10 h) Sore throat (1 day and 23 h) Erythema (6 days and 13 h); also recorded: Normal; also recorded: Tongue numbness (5 days and 20 h) Dizziness (4 h); also recorded: Tongue numbness (5 days and 14 h); also recorded: Tongue numbness (5 days and 8 h) Dizziness (2 days and 13 h) Headache (1 day and 19 h) Lip numbness (1 day and 10 h) Skin itchiness (1 day and 20 h); also recorded: Tongue numbness (5 days and 20 h) Lip numbness (2 days and 15 h) Pharyngeal discomfort (5 days and 16 h) Facial numbness (4 days and 16 h)”. For the same substance, the “serum β2-microglobulin” value [2] was 1.72 mg/L, the “T1/2, median” value [3] was 1.72 h and the half-life [3] was 1.52 h. The incidence of nephrotoxicity [4] was 26.0–74.1%, the CLt [5, 8] was 1.3 ± 0.33 mL/min/kg and the Vd [5, 8] was 0.15 ± 0.03 L/kg. For the same substance, the “fm (fraction of CMS converted to colistin in the body)” value [5, 8] was 0.27 ± 0.12, the “AUC0–12” value [5, 9] was 53730 ± 9770 ng·h/mL and the “AUC0–24” value [5, 9] was 53960 ± 9930 ng·h/mL. For the same substance, the CLr ([5]; Day 1 (first dose), CMS 2.5 mg/kg CBA i.v., day 1 urine stored without BSA, for reference only) was 1 ± 0.17 mL/min/kg, the Cmax ([5]; Day 1 (first dose), healthy Chinese subjects, CMS 2.5 mg/kg CBA i.v. infusion 90 min, plasma, UPLC-MS/MS, non-compartment model) was 22200 ± 4380 ng/mL and the “fm (fraction of CMS converted to colistin in the body)” value [5, 10] was 0.45 ± 0.15. The CLr [5, 10] was 0.67 ± 0.33 mL/min/kg, the CLt ([5]; Day 7 (last dose, steady state), CMS 2.5 mg/kg CBA i.v. q12 h 7 days) was 1.3 ± 0.33 mL/min/kg and the “Cavg,ss” value [5, 11] was 4410 ± 754 ng/mL. The “Cmin,ss” value [5, 11] was 133 ± 141 ng/mL and the “AI (accumulation index)” value ([5]; Day 7, after 7 consecutive days of CMS 2.5 mg/kg CBA i.v. q12 h) was 1.07 ± 0.10.
